{"source": "patent US20180021270A1", "about": "“METHODS FOR THE TREATMENT OF CANCER USING COENZYME Q10 IN COMBINATION WITH IMMUNE CHECKPOINT MODULATORS” (Berg LLC, priority 2016, published 2018)", "key": {"[1]": {"test_system": "CD3 positive murine T cells within Balb/c PBMCs", "experiment": "Viability of murine CD3 positive T cells within PBMCs", "assay_type": "cell-based, mouse", "conditions": "0-800 μM, 24 hours, dose-dependent, non-stimulated and PHA-stimulated cells", "description": "The effects of Coenzyme Q10 on murine immune cells were also evaluated to determine whether Coenzyme Q10 has similar effects as those described above for human immune cells. For example, the viability of murine CD3 positive T cells within PHA-stimulated or unstimulated Balb/c PBMCs was determined. Cells were concurrently treated with Coenzyme Q10 (0, 12.5, 50, 200, 400 or 800 μM) for 24 hours and analyzed by flow cytometry using surface marker antibody for αCD3 and viability stains Annexin V/7AAD. CD3 positive and CD3 negative cell populations were identified within total cell population excluding debris, and viability was determined by plotting Annexin V-FITC vs. 7AAD. Two experiments using two different pools of Balb/c PBMCs and one experiment using C57B1/6 PBMCs were conducted. As shown in FIGS. 21A and 21B, Coenzyme Q10 increased the viability of CD3 positive murine T cells in a dose-dependent manner for both non-stimulated and PHA-stimulated cells."}, "[2]": {"test_system": "tumor infiltrating lymphocytes (TILs) in murine Pan02 pancreatic tumors", "experiment": "CD8 IHC pathological scoring of tumor infiltrating lymphocytes in Pan02 tumors", "assay_type": "in vivo, mouse", "description": "Tumor samples from mice with murine Pan02 tumors treated with different doses of Coenzyme Q10 were analyzed for the presence of tumor infiltrating lymphocytes (TILs). C57B1/6 female mice were inoculated with 3×10^7 Pan02 cells. When tumors reached a mean volume of 100 mm^3, animals were randomized into four groups and treated with vehicle control or Coenzyme Q10 (25, 50 or 100 mg/kg) twice daily for 21 days. At the end of the study, tumors were removed and subjected to IHC analysis for Tumor Infiltrating Lymphocytes (TILs) with CD8 staining. All slides were subjected to a pathological scoring. […] As shown in FIGS. 29A and 29B, Coenzyme Q10 increased TILs in a dose-dependent manner."}, "[3]": {"test_system": "PD-L1 protein on the surface of breast cancer cells (MDA-MB231)", "experiment": "Flow cytometry of PD-L1 protein on the cancer cell surface", "assay_type": "cell-based, human", "description": "(§1) Flow cytometry analysis with a fluorescent probe for PD-L1 was used to determine the expression of PD-L1 protein on the surface of various human cancer cell lines. The cells were treated with 100 μM Coenzyme Q10, or the IC50 of Coenzyme Q10 for each cell line. […] The increased PD-L1 levels observed in breast cancer cells in response to Coenzyme Q10 treatment were not due to changes in cell populations."}, "[4]": {"test_system": "PD-L1 protein on the surface of lung cancer cells (A549)", "experiment": "Flow cytometry of PD-L1 protein on the cancer cell surface", "assay_type": "cell-based, human", "conditions": "A549, 72 hours after treatment", "description": "as §1\nHuman pancreatic (MIA PaCa-2), ovarian (SKOV-3), and lung (A549) cancer cell lines treated with Coenzyme Q10 were also analyzed by flow cytometry to determine PD-L1 protein expression on the cancer cell surface."}, "[5]": {"test_system": "human PBMCs (T cells)", "experiment": "Frequency of immune cell populations within PBMCs by flow cytometry", "assay_type": "cell-based", "conditions": "0-800 μM, 24 hours, dose dependent; greater effect in PHA-stimulated than unstimulated cells", "description": "PBMCs isolated from healthy human donor leukopaks were isolated and cryopreserved. To study the effect of Coenzyme Q10, cells were thawed, rested overnight and treated with or without phytohemagglutinin (PHA). PHA is a lectin protein found in plants which activates T cells by inducing mitosis. Various concentrations of Coenzyme Q10 (0, 12.5, 50, 200, 400 or 800 μM) were added to the cells at the same time. 24 hours to 72 hours post-treatment, frequency and viability of immune cell subpopulations was evaluated, as well as proliferative potential, cytokine secretion, and inhibitory receptor surface expression.\nThe frequency of different immune cell populations within PHA stimulated or unstimulated human PBMCs concurrently treated with Coenzyme Q10 (0, 12.5, 50, 200, 400 or 800 μM) was evaluated by flow cytometry. 24 hours post treatment, PBMCs were analyzed for the surface markers CD3/CD8, CD3/CD4, CD3/CD56, or CD19/CD14. Frequency of immune cell subtypes was quantified by percentage of cells gated for T cells (CD3/CD8/CD4), natural killer T cells (NKT), natural killer (NK) cells, B cells, and monocytes. Cells from 5 healthy donors were tested."}, "[6]": {"test_system": "T cell surface proteins in buffy coat", "experiment": "Proteomic analysis of buffy coat samples from cancer patients administered Coenzyme Q10", "assay_type": "in vivo, human", "conditions": "patients with solid tumors, intravenous 4% Coenzyme Q10 nanosuspension; start vs end of treatment", "description": "The ability of Coenzyme Q10 to modulate immune function in cancer patients was investigated by characterizing the molecular signature in buffy coats of patients administered Coenzyme Q10 for the treatment of solid tumors. A sterile Coenzyme Q10 (Ubidecarenone, USP) nanosuspension was administered intravenously to patients with solid tumors. Coenzyme Q10 was evaluated both as a monotherapy and in combination with standard chemotherapeutic agents (e.g. gemcitabine, 5-fluorouracil and docetaxel). The Coenzyme Q10 was provided as a 4% coenzyme Q10 nanosuspension formulation as described in WO 2011/112900, the entire contents of which are expressly incorporated herein by reference.\nThe effect of Coenzyme Q10 treatments on protein expression in immune cells within the buffy coat was evaluated. Furthermore, it was determined whether the proteins identified were known to be on the surface of T cells. To complete this analysis, buffy coat samples were subjected to shot gun global proteomic analysis, and a comprehensive list of proteins were generated for samples obtained from 25 patients being treated for solid tumors with Coenzyme Q10 as described above.\nFor proteomic analysis, data from two publically available T cell proteomic studies were combined. See Graessel A. et al., 2015, Molecular and Cellular Proteomics 14: 2085-2102; and Loyet K. M. et al., 2005, Proteome Research 4: 400, the entire contents of each of which are expressly incorporated herein by reference. Both studies defined the set of proteins on the surface of naïve and activated T cells to generate a working list of proteins potentially found on the T cell surface. This list (>600 proteins) was compared to the total proteome of the buffy coat (>2000 proteins) from twenty-five patients treated with Coenzyme Q10 as monotherapy.\nA total of 62 common proteins shared between T cell surface proteome and the buffy coat proteome were identified. The relative change in protein levels (on the y-axis) represents the slope of the line derived from the linear regression of the level of each protein at the start of Coenzyme Q10 treatment versus the level at the end of Coenzyme Q10 treatment. FIG. 1 provides a schematic of the plot slope of linear regression representing the change in protein expression over time."}, "[7]": {"conditions": "25 mg/kg twice daily for 21 days"}, "[8]": {"conditions": "50 mg/kg twice daily for 21 days"}, "[9]": {"conditions": "100 mg/kg twice daily for 21 days"}}}
{"smiles": "COC1=C(OC)C(=O)C(C/C=C(\\C)CC/C=C(\\C)CC/C=C(\\C)CC/C=C(\\C)CC/C=C(\\C)CC/C=C(\\C)CC/C=C(\\C)CC/C=C(\\C)CC/C=C(\\C)CCC=C(C)C)=C(C)C1=O", "note": "[Coenzyme Q10]", "values": [{"measurement": "Viability of CD3 positive murine T cells", "setting": "[1]", "value": "increased"}, {"measurement": "Percentage of mice with TIL levels Higher than Control", "setting": "[2]; [7]", "value": 40, "unit": "%"}, {"measurement": "Percentage of mice with TIL levels Lower than Control", "setting": "[2]; [7]", "value": 10, "unit": "%"}, {"measurement": "Percentage of mice with TIL levels Similar to Control", "setting": "[2]; [7]", "value": 50, "unit": "%"}, {"measurement": "Percentage of mice with TIL levels Higher than Control", "setting": "[2]; [8]", "value": 42.9, "unit": "%"}, {"measurement": "Percentage of mice with TIL levels Lower than Control", "setting": "[2]; [8]", "value": 28.6, "unit": "%"}, {"measurement": "Percentage of mice with TIL levels Similar to Control", "setting": "[2]; [8]", "value": 28.6, "unit": "%"}, {"measurement": "Percentage of mice with TIL levels Higher than Control", "setting": "[2]; [9]", "value": 55.2, "unit": "%"}, {"measurement": "Percentage of mice with TIL levels Lower than Control", "setting": "[2]; [9]", "value": 33.3, "unit": "%"}, {"measurement": "Percentage of mice with TIL levels Similar to Control", "setting": "[2]; [9]", "value": 11.1, "unit": "%"}, {"measurement": "Tumor infiltrating lymphocytes (TILs) in tumors", "setting": "[2]; 25, 50 or 100 mg/kg twice daily for 21 days, dose-dependent", "value": "increased"}, {"measurement": "Amount of PD-L1 protein on the cell surface", "setting": "[3]; MDA-MB231, 3 hours after treatment", "value": "significantly increased"}, {"measurement": "Amount of PD-L1 protein on the cell surface, treated vs untreated", "setting": "[3]; MDA-MB231, 6 hours after treatment", "value": "no significant difference"}, {"measurement": "Amount of PD-L1 protein on the cell surface", "setting": "[3]; MDA-MB231, 72 hours after treatment", "value": "significantly increase"}, {"measurement": "Percentage of cells having PD-L1 protein on their surface", "setting": "[3]; MDA-MB231, 72 hours after treatment, 100 μM or IC50 of Coenzyme Q10", "value": "did not significantly change"}, {"measurement": "Cell populations, treated vs untreated cells", "setting": "[3]; MDA-MB231, flow cytometry", "value": "no changes"}, {"measurement": "Amount of PD-L1 on the cell surface", "setting": "[4]", "value": "did not significantly change"}, {"measurement": "Percentage of cells having PD-L1 protein on their surface", "setting": "[4]", "value": "did not significantly change"}, {"measurement": "Frequency of cytotoxic T cells", "setting": "[5]", "value": "increased"}, {"measurement": "Frequency of helper T cells", "setting": "[5]", "value": "increased"}, {"measurement": "Frequency of total T cells", "setting": "[5]", "value": "increased"}, {"measurement": "Expression of CD8B in buffy coat", "setting": "[6]", "value": "downregulated"}, {"measurement": "Expression of CD247 in buffy coat", "setting": "[6]", "value": "downregulated"}, {"measurement": "Expression of CFL1 in buffy coat", "setting": "[6]", "value": "upregulated"}, {"measurement": "Expression of S100A8 in buffy coat", "setting": "[6]", "value": "upregulated"}]}
